{"source": "patent US20100129831A1", "about": "“METHODS FOR DIAGNOSING HYPERSENSITIVITY REACTIONS” (priority 2007, published 2010)", "system": "acute interstitial nephritis", "assay": "oral glucocorticoid treatment of acute interstitial nephritis (case report)", "format": "in vivo, human", "settings": "1 mg/kg, creatinine gradually declined", "method": "Severe acute interstitial nephritis (AIN) was diagnosed based on needle biopsy. Oral glucocorticoid treatment (prednisone 1 mg/kg) was begun and was effective. Creatinine gradually declined over the next 8 weeks (Cr-3.5 mg/dL); glucose levels also declined. Another course of steroids was initiated, after which the creatinine level further declined, stabilizing around a level of 1.8 mg/dL, close to the previous value of 1.4 mg/dL. While investigated as to the etiology of their newly diagnosed AIN, the patient described the use of an alternative medicine hypnotic or sedative OTC, “Region-Laila.” Region's leaflet lists 4 active ingredients: Passiflora incarnata 250 mg, Scutellaria laterifolia 50 mg, Humulus Lupullus 50 mg and Melissa officinalis 25 mg."}
{"smiles": "C[C@]12C=CC(=O)C=C1CC[C@@H]1[C@@H]2C(=O)C[C@@]2(C)[C@H]1CC[C@]2(O)C(=O)CO", "note": "[prednisone]", "values": [{"measurement": "treatment outcome in acute interstitial nephritis", "value": "effective"}]}
